Data: PubChem BioAssay (NCI)
Several values for one entry are separate records, joined by “and”; a condition that tells them apart may be missing. Equal entries are not always repeated.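 Values below derive from 48-hour exposures of cells grown in 96-well plates, with endpoints linearly interpolated between the two concentrations bracketing the appropriate inhibition level. GI50: concentration for 50% inhibition of growth. The concentration for full growth arrest is given as TGI.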

How the values were obtained:
Experiment in all cases: growth of human tumour cells (NCI), 48 h
[1] = test system: 786-0 renal
[2] = test system: COLO 205 colon
[3] = test system: DU-145 prostate
[4] = test system: KM12 colon
[5] = test system: MDA-N
[6] = test system: SK-MEL-5 melanoma
[7] = test system: SN12C renal
[8] = test system: SW-620 colon
[9] = test system: T-47D breast
[10] = test system: TK-10 renal
[11] = test system: UACC-257 melanoma

SMILES	TGI [1]	TGI [2]	TGI [3]	TGI [4]	TGI [5]	TGI [6] [µM]	TGI [7]	TGI [8]	TGI [9]	TGI [10]	TGI [11]	GI50 [2]	GI50 [4]
O=C(O)c1ccccc1/C=N\NC1=NCCN1	> 100 µM	> 100 µM	> 100 µM	> 100 µM	> 100 µM	> 100	> 100 µM	> 100 µM	> 100 µM	> 100 µM	> 100 µM		
C[N+]1(C)CN(c2ccccc2)C2(CCN(CCCC(=O)c3cccs3)CC2)C1=O	> 100 µM	> 100 µM	> 100 µM	> 100 µM	> 100 µM	77.1	> 100 µM	> 100 µM	> 100 µM	> 100 µM	> 100 µM		
CCCc1c2c3ccccc3nc-2nc2ccccn12	> 100 µM	> 100 µM	> 100 µM	> 100 µM	> 100 µM	> 100	> 100 µM	> 100 µM	> 100 µM	> 100 µM	> 100 µM		
O=C(O)CCC1(c2ccccc2)NC(=O)NC1=O (configuration not stated)	> 100 µM	> 100 µM	> 100 µM	> 100 µM	> 100 µM	> 100	> 100 µM	> 100 µM	> 100 µM	> 100 µM	> 100 µM		
Cc1nc2c(-c3ccccc3)[nH]c(C)c2c(=O)o1	> 100 µM	> 100 µM	> 100 µM	> 100 µM	> 100 µM	> 100	> 100 µM	> 100 µM	> 100 µM	> 100 µM	> 100 µM		
CC(Cc1ccc(O)c(O)c1)C(C)Cc1ccc(O)c(O)c1 (configuration not stated)	32.8 µM	35.9 µM	46.4 µM	33.5 µM	26.3 µM	32.9	> 51.6 µM	49.9 µM	41.2 µM	> 87.7 µM	37.9 µM		
O=C1OC(CN2CCN(c3ccccc3)CC2)CN1C(=S)Nc1ccccc1 (configuration not stated)	> 100 µM	> 100 µM	> 100 µM	> 100 µM	> 100 µM	> 100	> 100 µM	> 100 µM	> 100 µM	> 100 µM	> 100 µM		
Cn1c(=O)n(CC(Br)CBr)c(=O)n(CC(Br)CBr)c1=O (configuration not stated)	> 100 µM	43.4 µM	> 100 µM	> 100 µM	> 100 µM	32.9	67.3 µM	> 100 µM	> 100 µM	> 100 µM	> 100 µM		
COC(=O)C1=C(C)NC(C)=C([N+](=O)[O-])C1c1cccc(NO)c1 (configuration not stated)	> 87.9 µM	4.74 µM	> 100 µM	6.85 µM	4.14 µM	15	> 30.8 µM	16.5 µM	> 52.4 µM	26 µM	28.1 µM		
C=CCn1c(=O)c(C)cn(/C(=C/C(=O)OCC)C(=O)OCC)c1=O	19.2 µM	15.2 µM	> 74.3 µM	36 µM	33.7 µM	36.3	29.7 µM	15.5 µM	30.7 µM	28.8 µM	55.5 µM		
CC1(C)CCc2c(c(N=Nc3ccccc3)c3ccccc3c2O)O1	30.8 µM	> 100 µM	83 µM	> 100 µM	41.7 µM	> 100	40.1 µM	> 100 µM	> 100 µM	46.1 µM	39.8 µM		
Cc1ccc(C2=Nc3c(N)nc(N)nc3NC(c3ccccc3)C2)cc1 (configuration not stated)	24.3 µM and 31.1 µM	14 µM and 25.3 µM	28.3 µM and 29.3 µM	13.8 µM and 33.7 µM	5.64 µM and 5.72 µM	34.4	23.7 µM and 32 µM	15.2 µM and 16.2 µM	28.2 µM and 32.6 µM	27.6 µM and 40.2 µM	24.6 µM and 32.4 µM	5.21 µM and 11.4 µM	3.97 µM and 18 µM
CC1(C)CC(=O)c2c(nc3ccc4ccccc4c3c2-c2ccc(NC(=O)CCCCC(=O)Nc3ccc(-c4c5c(nc6ccc7ccccc7c46)CC(C)(C)CC5=O)cc3)cc2)C1	> 100 µM	> 100 µM	> 100 µM	> 100 µM	> 100 µM	> 100	> 100 µM	> 100 µM	> 100 µM	> 100 µM	> 100 µM		
CCOC(=O)c1c(SCCO)n(-c2ccccc2)c(=S)n(-c2ccccc2)c1=O	> 100 µM	> 100 µM	> 100 µM	> 100 µM	> 100 µM	> 100	> 100 µM	> 100 µM	> 100 µM	> 100 µM	> 100 µM		
COC/C=C\[C@@]1(O)CCCC[C@@H]1CC(OC)OC	> 100 µM	> 100 µM	> 100 µM	> 100 µM	> 100 µM	> 100	43.7 µM	> 100 µM	> 100 µM	> 100 µM	> 100 µM		
CCCCCCCCCN1CCC(=O)C(C(=O)OC)C1 (configuration not stated)	30.6 µM	30.8 µM	29.3 µM	13.1 µM	29.5 µM	33	29.5 µM	27.9 µM	28.3 µM	31.4 µM	24.7 µM		
CCOC(=O)c1nc2cc(C(F)(F)F)ccc2nc1Nc1ccc(Cl)c(Cl)c1	> 100 µM	> 100 µM	> 100 µM	> 100 µM	> 100 µM	> 100	> 100 µM	> 100 µM	> 100 µM	> 100 µM	> 100 µM		
Fc1ccc(C(OCCN2CCC3CCC(C2)N3Cc2cc3ccccc3[nH]2)c2ccc(F)cc2)cc1 (configuration not stated)	3.08 µM	2.14 µM	3.59 µM	3.72 µM	3.1 µM	3.11	3.05 µM	3.78 µM	3.18 µM	5.38 µM	3.53 µM		

SMILES	TGI [1]	TGI [2]	TGI [3]	TGI [4]	TGI [5]	TGI [6] [µM]	TGI [7]	TGI [8]	TGI [9]	TGI [10]	TGI [11]	GI50 [2]	GI50 [4]
Nc1c(C(=O)c2ccccc2)[nH]c(NCc2ccccc2)c1C(=S)Nc1ccccc1	> 100 µM	> 100 µM	> 100 µM	> 100 µM	> 100 µM	> 100	> 100 µM	> 100 µM	> 100 µM	> 100 µM	> 100 µM		
Clc1nc2c(-c3cccs3)ncnc2n1Cc1ccccc1	59.5 µM	> 100 µM	6.18 µM	37.5 µM	> 100 µM	> 100	> 100 µM	> 70.5 µM	> 91.5 µM	61.5 µM	61.9 µM		
CN1C[C@@H]2CCCN2P1Oc1cccc2cccnc12 (some centres not stated)	> 100 µM	> 100 µM	> 100 µM	> 100 µM	> 100 µM	> 100	> 100 µM	> 100 µM	> 100 µM	> 100 µM	> 100 µM		
C[C@@H]1CCC2[C@@H](C)C(=O)O[C@@H]3C4C[C@@H]1[C@@]23OO[C@@]4(C)O (some centres not stated)	> 100 µM	> 100 µM	> 100 µM	> 100 µM	> 100 µM	> 100	> 100 µM	> 100 µM	> 100 µM	> 100 µM	> 100 µM		
Cc1[nH]c2ccccc2c1C=Nc1ccc(Oc2ccccc2)cc1	30.3 µM	30.1 µM	30.4 µM	31.4 µM	31.9 µM	28.9	31.9 µM	42.6 µM	40.5 µM	30.2 µM	31.8 µM		
COC(=O)CCCCC/C(=C\C(=O)C(Cl)(Cl)Cl)OC	68.5 µM	57.7 µM	63.1 µM	95 µM	71.3 µM	> 100	> 100 µM	84.3 µM	> 100 µM	86.9 µM	57.7 µM		
Nc1cccc(OCc2nc(N)nc(N)c2-c2ccc(Cl)cc2)c1	> 100 µM	44.1 µM	> 100 µM	> 100 µM	> 100 µM	> 100	> 100 µM	> 100 µM	> 100 µM	> 100 µM	> 100 µM		
CN(/N=C\c1ccc2ccccc2c1)C1=NCCCCN1	32.8 µM	35.3 µM	> 100 µM	52.1 µM	31.2 µM	27.3	45.7 µM	37.8 µM	> 100 µM	56.5 µM	33.7 µM		
N#Cc1c(NC(=S)NCc2ccccc2)sc2c1CCN(N1CCc3c(sc(NC(=S)NCc4ccccc4)c3C#N)C1)C2	> 100 µM	> 100 µM	> 100 µM	> 100 µM	> 100 µM	> 100	> 100 µM	> 100 µM	> 100 µM	> 100 µM	> 100 µM		
CCCCCCCSCC(O)COC(c1ccccc1)(c1ccccc1)c1ccccc1 (configuration not stated)	> 100 µM	> 100 µM	> 100 µM	16.9 µM	> 100 µM	47.9	> 100 µM	> 100 µM	> 100 µM	> 100 µM	> 100 µM		
O=C(NC(Nc1ccc(F)c(Cl)c1)(C(F)(F)F)C(F)(F)F)C(C(F)(F)F)C(F)(F)F	> 100 µM	74.4 µM	> 100 µM	> 100 µM	> 100 µM	81.3	> 100 µM	> 100 µM	> 100 µM	> 100 µM	> 100 µM		
O=C(/C=C/c1ccc(O)c(O)c1)OCCOC(=O)/C=C/c1ccc(O)c(O)c1	> 100 µM	42.3 µM	79.8 µM	41.8 µM	41.6 µM	32.7	65.1 µM	> 100 µM	51.2 µM	> 100 µM	44.5 µM		
CC1=C(C(=O)OC(C)C)C(c2ccccc2[N+](=O)[O-])C(C(=O)OC(CO[N+](=O)[O-])CO[N+](=O)[O-])=C(C)N1 (configuration not stated)	14.4 µM	38.8 µM	> 100 µM	22.8 µM	8.43 µM	4.78	52.6 µM	18.9 µM	> 100 µM	> 100 µM	15.7 µM		
Cc1cc(=Nc2ccc3c(c2)c(N)cc(C)[n+]3C)nc(N)n1C	> 100 µM	> 100 µM	> 100 µM	> 100 µM	> 100 µM	> 100	> 100 µM	> 100 µM	> 100 µM	> 100 µM	> 100 µM		
O=C1c2cc(CCl)sc2C(=O)c2ccsc21	2.88 µM	2.68 µM	0.332 µM	3.03 µM	0.0343 µM	0.0821	0.842 µM	0.387 µM	0.562 µM	3.41 µM	0.327 µM		
NC(=O)N(O)c1cccc(Br)c1	> 100 µM	> 100 µM	> 100 µM	> 100 µM	> 100 µM	> 100	> 100 µM	> 100 µM	> 100 µM	> 100 µM	> 100 µM		
CCC1(C)N=C(C(N)=O)c2ncn(N=C(C)C)c2N1 (configuration not stated)	> 100 µM	> 100 µM	> 100 µM	> 100 µM	> 100 µM	> 100	> 100 µM	> 100 µM	> 100 µM	> 100 µM	> 100 µM		
